Values of other authors, collected in US20050220825A1, “Molecular dispersions of drospirenone” (priority 2004, published 2005).

What was measured:
[1] = drospirenone in micronised form; background statement
[2] = within 30 minutes, hydrochloric acid solution pH about 1.0

drospirenone dissolved at 30 minutes after start of dissolution testing [1]: at least 70%
drospirenone degraded into its therapeutically inactive isomer [2]: ~50%
Compound: C[C@]12CCC(=O)C=C1[C@@H]1C[C@@H]1[C@H]1[C@@H]3[C@@H]4C[C@@H]4[C@@]4(CCC(=O)O4)[C@@]3(C)CC[C@@H]12 [drospirenone]
